Measurements published in PubChem BioAssay (NCI).
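Results reflect a 48-hour exposure of cells in 96-well plates to compound at five concentrations. TGI: concentration producing complete growth inhibition.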

Columns and labels:
Assay in all cases: NCI anticancer screen, dose series, 48 h
786-0 renal = test system: 786-0 renal
A549 NSCLC = test system: A549 NSCLC
ACHN renal = test system: ACHN renal
BT-549 breast = test system: BT-549 breast
CAKI-1 renal = test system: CAKI-1 renal
CCRF-CEM leukemia = test system: CCRF-CEM leukemia
COLO 205 colon = test system: COLO 205 colon
DU-145 prostate = test system: DU-145 prostate
EKVX NSCLC = test system: EKVX NSCLC
HCC-2998 colon = test system: HCC-2998 colon
HCT-116 colon = test system: HCT-116 colon
HCT-15 colon = test system: HCT-15 colon
HL-60(TB) leukemia = test system: HL-60(TB) leukemia
HOP-62 NSCLC = test system: HOP-62 NSCLC
HOP-92 NSCLC = test system: HOP-92 NSCLC
HS 578T breast = test system: HS 578T breast
HT29 colon = test system: HT29 colon
IGROV1 ovarian = test system: IGROV1 ovarian
K-562 leukemia = test system: K-562 leukemia
KM12 colon = test system: KM12 colon
LOX IMVI melanoma = test system: LOX IMVI melanoma
M14 melanoma = test system: M14 melanoma
MALME-3M melanoma = test system: MALME-3M melanoma
MCF7 breast = test system: MCF7 breast
MDA-MB-231 breast = test system: MDA-MB-231 breast
MDA-MB-435 = test system: MDA-MB-435
MDA-N = test system: MDA-N
MOLT-4 leukemia = test system: MOLT-4 leukemia
NCI-H226 lung = test system: NCI-H226 lung
NCI-H23 lung = test system: NCI-H23 lung
NCI-H460 lung = test system: NCI-H460 lung
NCI-H522 lung = test system: NCI-H522 lung
NCI/ADR-RES ovarian = test system: NCI/ADR-RES ovarian
OVCAR-3 ovarian = test system: OVCAR-3 ovarian
OVCAR-4 ovarian = test system: OVCAR-4 ovarian
OVCAR-5 ovarian = test system: OVCAR-5 ovarian
OVCAR-8 ovarian = test system: OVCAR-8 ovarian
PC-3 prostate = test system: PC-3 prostate
RPMI-8226 leukemia = test system: RPMI-8226 leukemia
RXF 393 renal = test system: RXF 393 renal
SF-268 CNS = test system: SF-268 CNS
SF-295 CNS = test system: SF-295 CNS
SK-MEL-2 melanoma = test system: SK-MEL-2 melanoma
SK-MEL-5 melanoma = test system: SK-MEL-5 melanoma
SK-OV-3 ovarian = test system: SK-OV-3 ovarian
SN12C renal = test system: SN12C renal
SNB-19 CNS = test system: SNB-19 CNS
SNB-75 CNS = test system: SNB-75 CNS
SW-620 colon = test system: SW-620 colon
T-47D breast = test system: T-47D breast
TK-10 renal = test system: TK-10 renal
U251 CNS = test system: U251 CNS
UACC-257 melanoma = test system: UACC-257 melanoma
UACC-62 melanoma = test system: UACC-62 melanoma
UO-31 renal = test system: UO-31 renal
A498 renal = test system: A498 renal
SF-539 CNS = test system: SF-539 CNS
SK-MEL-28 melanoma = test system: SK-MEL-28 melanoma

Measured: TGI

COC(=O)[C@H](Cc1c[nH]c2ccccc12)NC(=O)OCC1OC(n2cc(C)c(=O)[nH]c2=O)CC1N=[N+]=[N-] (stereo partly drawn)
not listed: A498 renal | SF-539 CNS | SK-MEL-28 melanoma
> 100 µM: all other assays above

CO/C=C(/C(=O)OC)c1ccccc1Oc1c(F)c(F)c(F)c(F)c1F
62.4 µM: OVCAR-3 ovarian
82.7 µM: UACC-257 melanoma
98.5 µM: CCRF-CEM leukemia
68.5 µM: UACC-62 melanoma
58.1 µM: SK-MEL-2 melanoma
40.8 µM: SK-MEL-5 melanoma
92.9 µM: A498 renal
30.4 µM: MOLT-4 leukemia
5.72 µM: HL-60(TB) leukemia
66.5 µM: CAKI-1 renal
86 µM: HS 578T breast
73.1 µM: T-47D breast
41.2 µM: RPMI-8226 leukemia
56 µM: HCT-116 colon
85.4 µM: OVCAR-4 ovarian
88.2 µM: TK-10 renal
77.8 µM: MDA-MB-435
63.8 µM: RXF 393 renal
97.7 µM: IGROV1 ovarian
69.2 µM: HOP-92 NSCLC
35.3 µM: COLO 205 colon
not listed: MALME-3M melanoma | NCI-H522 lung | SNB-75 CNS | SW-620 colon
> 100 µM: all other assays above

COc1ccccc1C1(c2c(OC(C)C)c(=O)c2=O)SCCCS1
not listed: HCC-2998 colon | K-562 leukemia | MALME-3M melanoma | RPMI-8226 leukemia
> 100 µM: all other assays above
